Source: ChEMBL document CHEMBL5625206, “Design, synthesis, and evaluation of novel pleuromutilin aryl acrylate derivatives as promising broad-spectrum antibiotics especially for combatting multi-drug resistant gram-negative bacteria” (Eur J Med Chem, 2023)
≈ marks a conversion by molar mass, not a printed value. Calls of active or inactive are those of the source. No cut-off for these calls is given here.

How the values were obtained:
Staphylococcus aureus [1] = experiment: Antibacterial activity against Staphylococcus aureus ATCC 29213 assessed as bacterial growth inhibition incubated for 24 hrs by CLSI based broth microdilution method; type: functional
[2] = Toxicity in fasted male Sprague-Dawley rat assessed as body weight at 331 mg/kg, IG measured on same day (reference value: 212.7 +/- 13.2 g); type: organism-based; conditions: in vivo, po
Escherichia coli [3] = experiment: Induction of cell damage in Escherichia coli ATCC 25922 assessed as fold increase in extracellular ATP concentration at 2 times MIC incubated for 30 mins by fluorescence based analysis relative to control; type: functional; conditions: 0.5 h
Escherichia coli [4] = experiment: Induction of cell damage in Escherichia coli ATCC 25922 assessed as intracellular pH at MIC incubated for 30 mins by fluorescence based analysis (reference value: 6.05 +/- 0.10); type: functional; conditions: 0.5 h
[5] = Toxicity in Sprague-Dawley rat assessed as animal death at 10 to 100 mg/kg, IG measured for 14 days; type: organism-based; conditions: in vivo, po, 336 h, dose 10-100 mg/kg, time 14 day
[6] = Toxicity in fasted female Sprague-Dawley rat assessed as animal growth rate at 224 mg/kg, IG measured for 14 days (reference value: 29.85 +/- 4.97 g); type: organism-based; conditions: in vivo, po, 336 h, time 14 day
[7] = Toxicity in fasted female Sprague-Dawley rat assessed as relative ovary weight ratio at 224 mg/kg, IG measured for 14 days (reference value: 0.061 +/- 0.010); type: organism-based; conditions: in vivo, po, 336 h, time 14 day
[8] = Toxicity in fasted male Sprague-Dawley rat assessed as body weight at 148 mg/kg, IG measured after 7 days (reference value: 260.5 +/- 12.7 g); type: organism-based; conditions: in vivo, po, 168 h, time 7 day
Escherichia coli [9] = experiment: Induction of extracellular electrical conductivity in Escherichia coli ATCC 25922 at MIC incubated for 6 hrs; type: functional, organism-based
[10] = MRT in fasted Sprague-Dawley rat at 1 mg/kg, iv by LC-MS/MS analysis; type: ADME, organism-based; conditions: in vivo
[11] = Toxicity in neutropenic Kunming mouse model infected with methicillin-resistant Staphylococcus aureus ATCC 33591 assessed as survival rate at 20 mg/kg, ip measured after 7 days relative to control; type: organism-based; conditions: in vivo, 168 h, time 7 day
[12] = Cmax in fasted Sprague-Dawley rat at 1 mg/kg, iv by LC-MS/MS analysis; type: ADME, organism-based; conditions: in vivo
[13] = Toxicity in fasted male Sprague-Dawley rat assessed as body weight at 500 mg/kg, IG measured after 14 days (reference value: 311.2 +/- 13.6 g); type: organism-based; conditions: in vivo, po, 336 h, time 14 day
[14] = Toxicity in fasted female Sprague-Dawley rat assessed as relative ovary weight ratio at 331 mg/kg, IG measured for 14 days (reference value: 0.061 +/- 0.010); type: organism-based; conditions: in vivo, po, 336 h, time 14 day
Staphylococcus aureus [15] = experiment: Antibacterial activity against methicillin-resistant Staphylococcus aureus ATCC 33591 infected in neutropenic Kunming mouse model assessed as bacterial load reduction in liver at 10 to 20 mg/kg, ip measured after 2 days; type: functional, organism-based; conditions: dose 10-20 mg/kg, time 2.0 day
Escherichia coli [16] = experiment: Depolarization of cell membrane in Escherichia coli ATCC 25922 by DiBAC4(3) probe based analysis; type: functional, organism-based
[17] = Half life in fasted Sprague-Dawley rat at 1 mg/kg, iv by LC-MS/MS analysis; type: ADME, organism-based; conditions: in vivo
Escherichia coli [18] = experiment: Bactericidal activity against Escherichia coli ATCC 25922 incubated for 24 hrs by time kill assay; type: functional, organism-based
[19] = Toxicity in fasted female Sprague-Dawley rat assessed as animal growth rate at 500 mg/kg, IG measured for 14 days (reference value: 29.85 +/- 4.97 g); type: organism-based; conditions: in vivo, po, 336 h, time 14 day
[20] = Toxicity in fasted female Sprague-Dawley rat assessed as relative lung weight ratio at 500 mg/kg, IG measured for 14 days (reference value: 0.534 +/- 0025); type: organism-based; conditions: in vivo, po, 336 h, time 14 day
[21] = Toxicity in fasted male Sprague-Dawley rat assessed as relative lung weight ratio at 148 mg/kg, IG measured for 14 days (reference value: 0.437 +/- 0.064); type: organism-based; conditions: in vivo, po, 336 h, time 14 day
[22] = Toxicity in fasted female Sprague-Dawley rat assessed as body weight at 331 mg/kg, IG measured after 7 days (reference value: 188.2 +/- 9.2 g); type: organism-based; conditions: in vivo, po, 168 h, time 7 day
Enterococcus = experiment: Antibacterial activity against vancomycin-resistant Enterococcus 80 clinical isolate assessed as bacterial growth inhibition incubated for 24 hrs by CLSI based broth microdilution method; type: functional
[23] = Toxicity in fasted male Sprague-Dawley rat assessed as relative kidney weight ratio at 148 mg/kg, IG measured for 14 days (reference value: 0.820 +/- 0.072); type: organism-based; conditions: in vivo, po, 336 h, time 14 day
[24] = Toxicity in fasted male Sprague-Dawley rat assessed as body weight at 100 mg/kg, IG measured after 14 days (reference value: 311.2 +/- 13.6 g); type: organism-based; conditions: in vivo, po, 336 h, time 14 day
Staphylococcus aureus [25] = experiment: Disruption of cell membrane integrity in methicillin-resistant Staphylococcus aureus ATCC 33591 assessed as wrinkled cell surface at MIC incubated for 4 hrs by FESEM analysis; type: functional, organism-based
[26] = Toxicity in fasted female Sprague-Dawley rat assessed as relative spleen weight ratio at 331 mg/kg, IG measured for 14 days (reference value: 0.223 +/- 0.019); type: organism-based; conditions: in vivo, po, 336 h, time 14 day
[27] = Toxicity in fasted female Sprague-Dawley rat assessed as relative liver weight ratio at 331 mg/kg, IG measured for 14 days (reference value: 3.199 +/- 0.062); type: organism-based; conditions: in vivo, po, 336 h, time 14 day
[28] = Toxicity in fasted male Sprague-Dawley rat assessed as body weight at 224 mg/kg, IG measured on same day (reference value: 212.7 +/- 13.2 g); type: organism-based; conditions: in vivo, po
[29] = Toxicity in fasted female Sprague-Dawley rat assessed as relative liver weight ratio at 500 mg/kg, IG measured for 14 days (reference value: 3.199 +/- 0.062); type: organism-based; conditions: in vivo, po, 336 h, time 14 day
[30] = Toxicity in fasted male Sprague-Dawley rat assessed as relative lung weight ratio at 224 mg/kg, IG measured for 14 days (reference value: 0.437 +/- 0.064); type: organism-based; conditions: in vivo, po, 336 h, time 14 day
[31] = Toxicity in fasted female Sprague-Dawley rat assessed as body weight at 500 mg/kg, IG measured on same day (reference value: 165.2 +/- 8.1 g); type: organism-based; conditions: in vivo, po
[32] = Toxicity in fasted female Sprague-Dawley rat assessed as animal growth rate at 100 mg/kg, IG measured for 14 days (reference value: 29.85 +/- 4.97 g); type: organism-based; conditions: in vivo, po, 336 h, time 14 day
[33] = Cytotoxicity against HEK293 cells incubated for 24 hrs by CCK8 assay; type: toxicity, cell-based; conditions: human
Staphylococcus aureus [34] = experiment: Inhibition of biofilm formation of methicillin-resistant Staphylococcus aureus ATCC 33591 at MIC incubated for 24 hrs by crystal violet staining based analysis relative to control; type: functional
Staphylococcus aureus [35] = experiment: Induction of cell damage in methicillin-resistant Staphylococcus aureus ATCC 33591 assessed as intracellular pH at MIC incubated for 30 mins by fluorescence based analysis (reference value: 6.34 +/- 0.10); type: functional; conditions: 0.5 h
[36] = Toxicity in Sprague-Dawley rat assessed as abnormal clinical symptoms at 10 to 100 mg/kg, IG measured for 14 days; type: organism-based; conditions: in vivo, po, 336 h, dose 10-100 mg/kg, time 14 day
Escherichia coli [37] = experiment: Inhibition of biofilm formation of Escherichia coli ATCC 25922 at 8 times MIC incubated for 24 hrs by crystal violet staining based analysis relative to control; type: functional

C=C[C@]1(C)C[C@@H](OC(=O)COC(=O)/C=C/c2ccc(N(C)C)cc2)[C@]2(C)[C@H](C)CC[C@]3(CCC(=O)[C@H]32)[C@@H](C)[C@@H]1O
MIC (Staphylococcus aureus [1]): 2 µg/mL (≈ 3.63 µM)
Activity [2]: 217.4 g
fold change (FC) (Escherichia coli [3]): 5.35
pH (Escherichia coli [4]): 4.34
Activity [5]: Non-Toxic
Activity [6]: 28.96%
Ratio [7]: 0.073
Activity [8]: 256.8 g
Activity (Escherichia coli [9]): Active
MRT [10]: 42.6 min
Survival [11]: 90%
Cmax [12]: 9570 ng/mL
Activity [13]: 296.8 g
Ratio [14]: 0.067
Activity (Staphylococcus aureus [15]): Active
Activity (Escherichia coli [16]): Dose-Dependent Effect
half-life [17]: 40.8 min
Activity (Escherichia coli [18]): Dose-Dependent Effect
Activity [19]: 30.22%
Ratio [20]: 0.503
Ratio [21]: 0.415
Activity [22]: 196.2 g
MIC (Enterococcus): 4 µg/mL (≈ 7.25 µM)
Ratio [23]: 0.799
Activity [24]: 314.5 g
Activity (Staphylococcus aureus [25]): Active
Ratio [26]: 0.247
Ratio [27]: 3.171
Activity [28]: 210.1 g
Ratio [29]: 3.203
Ratio [30]: 0.411
Activity [31]: 159.5 g
Activity [32]: 31.22%
CC50 at 24 h [33]: 34.6 µM
inhibition (INH) (Staphylococcus aureus [34]): 56.51%
pH (Staphylococcus aureus [35]): 4.27
Activity [36]: Non-Toxic
inhibition (INH) (Escherichia coli [37]): 97.56%
